Experimental data from patent US20260226048A1, “MULTI-CYCLIC IRAK AND FLT3 INHIBITING COMPOUNDS AND USES THEREOF” (CHILDREN'S HOSPITAL MEDICAL CENTER, priority 2023, published 2026).
Like-named read-outs stand apart in the source and are kept apart here.

Experiments:
[1] = target: T1, IRAK1 (Homo sapiens, UniProt P51617); assay: RBC HotSpot Kinase Assay, IRAK1; format: biochemical; conditions: isolated kinase enzyme, 33P-ATP, P81 filter-binding
T1 construct: purchased Reaction Biology (RBC HotSpot)
T1 sequence (P51617 whole entry): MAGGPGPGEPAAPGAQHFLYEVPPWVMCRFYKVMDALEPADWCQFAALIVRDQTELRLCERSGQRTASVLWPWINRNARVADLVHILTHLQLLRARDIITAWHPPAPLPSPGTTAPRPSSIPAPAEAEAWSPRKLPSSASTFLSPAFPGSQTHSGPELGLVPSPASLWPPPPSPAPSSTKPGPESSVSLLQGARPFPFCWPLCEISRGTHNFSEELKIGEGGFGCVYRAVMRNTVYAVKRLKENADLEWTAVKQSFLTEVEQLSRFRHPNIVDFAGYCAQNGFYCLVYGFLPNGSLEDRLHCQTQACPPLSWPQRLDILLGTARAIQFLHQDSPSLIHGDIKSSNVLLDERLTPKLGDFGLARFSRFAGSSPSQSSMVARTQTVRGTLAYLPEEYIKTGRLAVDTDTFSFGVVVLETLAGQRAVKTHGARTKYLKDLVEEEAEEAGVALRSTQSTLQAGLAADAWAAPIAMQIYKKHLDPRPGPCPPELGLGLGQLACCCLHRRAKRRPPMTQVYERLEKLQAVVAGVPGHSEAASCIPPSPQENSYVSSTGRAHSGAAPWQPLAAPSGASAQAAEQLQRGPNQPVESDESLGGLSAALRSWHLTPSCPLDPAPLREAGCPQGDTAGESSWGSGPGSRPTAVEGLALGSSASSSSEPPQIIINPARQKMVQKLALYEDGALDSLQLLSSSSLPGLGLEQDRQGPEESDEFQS
In short: (§1)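 Reactions ran in 20 mM Hepes (pH 7.5) containing 10 mM MgCl2, 1 mM EGTA, 0.1 mM Na3VO4, 2 mM DTT, 0.02 mg/ml BSA, 0.01% Brij35 and 1% DMSO, plus required cofactors. Functional activity readout on the expressible enzyme form, sometimes C-terminally truncated or lacking receptor regulatory regions.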

[2] = target: T2, FLT3 (Homo sapiens, UniProt P36888); assay: RBC HotSpot Kinase Assay, FLT3; format: biochemical; parameters: purchased Reaction Biology (RBC HotSpot); conditions: isolated kinase enzyme, 33P-ATP, P81 filter-binding
T2 sequence (P36888 27-993): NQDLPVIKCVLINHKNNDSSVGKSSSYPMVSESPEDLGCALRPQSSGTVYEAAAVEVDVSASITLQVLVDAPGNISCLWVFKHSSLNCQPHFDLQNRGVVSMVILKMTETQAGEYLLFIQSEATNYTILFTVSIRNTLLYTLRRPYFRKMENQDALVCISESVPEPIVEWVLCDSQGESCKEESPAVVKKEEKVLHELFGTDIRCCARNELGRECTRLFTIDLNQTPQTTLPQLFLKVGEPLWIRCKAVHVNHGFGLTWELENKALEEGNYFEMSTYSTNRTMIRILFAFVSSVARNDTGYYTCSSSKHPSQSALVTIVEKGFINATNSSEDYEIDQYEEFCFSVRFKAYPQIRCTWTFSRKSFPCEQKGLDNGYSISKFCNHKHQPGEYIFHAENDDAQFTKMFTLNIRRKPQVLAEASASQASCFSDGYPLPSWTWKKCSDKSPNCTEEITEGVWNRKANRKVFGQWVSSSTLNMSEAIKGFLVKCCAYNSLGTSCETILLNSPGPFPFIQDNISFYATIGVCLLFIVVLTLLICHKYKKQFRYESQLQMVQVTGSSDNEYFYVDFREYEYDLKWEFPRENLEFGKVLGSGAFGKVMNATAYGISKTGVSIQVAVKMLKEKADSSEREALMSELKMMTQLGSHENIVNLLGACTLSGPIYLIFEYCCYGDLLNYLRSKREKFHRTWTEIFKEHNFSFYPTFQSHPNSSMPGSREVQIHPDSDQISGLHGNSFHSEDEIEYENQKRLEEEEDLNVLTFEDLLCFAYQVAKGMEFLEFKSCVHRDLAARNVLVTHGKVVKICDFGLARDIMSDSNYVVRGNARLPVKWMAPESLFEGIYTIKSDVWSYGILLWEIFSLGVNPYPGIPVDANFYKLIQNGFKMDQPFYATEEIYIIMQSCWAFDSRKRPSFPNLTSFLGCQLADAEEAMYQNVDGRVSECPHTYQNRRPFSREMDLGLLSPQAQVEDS
In short: as §1

[3] = test system: NF-κB-inducible SEAP reporter in THP-1-Blue NF-κB cells; assay: NF-kB SEAP reporter assay in THP-1-Blue NF-κB cells; format: cell-based; conditions: 24 hours
In short: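 Cells (1×10^5/well) stimulated with Pam3CSK4 (1 ng/mL) or hIL1B (1 ng/mL), then after 10-20 min given 10-point 1:10 compound dilutions from 1 μM or 3 μM for 24 h at 37° C. Secreted SEAP in supernatant read with QUANTI-Blue (30-60 min, 37° C) at 620 nm.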

[4] = test system: THP1 cells (FLT3 WT); assay: Combination drug screening with venetoclax in THP1 cells (Cell Titre Glo, 10 × 10); format: cell-based; conditions: for Excess HSA (sum excess HSA score, combination with venetoclax): 10 × 10 dataset, Cell Titre Glo at 48 hours, optimal of 4 dose combinations, negative = synergy; for Concentration needed to decrease the 312.5 nM Venetoclax response to <20%: Cell Titer Glo at 48 hours
Procedure: (§2) These assays were performed using the Cell Titre Glo assay, measured at 48 hours.
(§3) A smaller concentration indicates higher potency to synergize with Venetoclax.

[5] = test system: MOLM14-D835Y cells (FLT3-ITD (D835Y) mutant); assay: Combination drug screening with venetoclax in MOLM14 (D835Y) cells (Cell Titre Glo, 10 × 10); format: cell-based; parameters: Excess HSA (sum excess HSA score, combination with venetoclax): scale not given here; conditions: for Excess HSA (sum excess HSA score, combination with venetoclax): 10 × 10 dataset, Cell Titre Glo at 48 hours, optimal of 4 dose combinations, negative = synergy; for Concentration of a compound of the disclosure, or gilteritinib, needed to decrease the 62.5 nM Ven response to <10% in MOLM14(D835Y) cells: combination with 62.5 nM Venetoclax, Cell Titer Glo, 48 hours, response <10%
Procedure: as §2, §3

[6] = THP-1-Blue NF-κB cells stimulated with Pam3CSK4 (1 ng/mL), read-out: NF-κB Pam3SCK4 IC50
[7] = THP-1-Blue NF-κB cells stimulated with hIL1B (1 ng/mL), read-out: NF-κB IL1B IC50

CC(O)(c1ccc2ncc(-c3ccnc(N[C@@H]4CCCNC4)n3)n2c1)C(F)(F)F (single isomer, unassigned) [Compound 22a]
IC50 [1]: 19 nM
IC50 [2]: 0.6 nM

CC(O)(c1ccc2ncc(-c3ccnc(N[C@@H]4CCCNC4)n3)n2c1)C(F)(F)F (single isomer, unassigned) [Compound 23a]
IC50 [1]: 3 nM
IC50 [3, 6]: 56 nM
IC50 [3, 7]: 96 nM
IC50 [2]: < 0.5 nM

CC(O)(c1ccc2ncc(-c3ccnc(N[C@H]4CNCC[C@@H]4F)n3)n2c1)C(F)(F)F (single isomer, unassigned) [Compound 25a]
IC50 [1]: 17 nM
IC50 [3, 6]: 193 nM
IC50 [3, 7]: 152 nM
Excess HSA (sum excess HSA score, combination with venetoclax) [4]: −1386
Concentration needed to decrease the 312.5 nM Venetoclax response to <20% [4]: 1250 nM
Excess HSA (sum excess HSA score, combination with venetoclax) [5]: −1507
Concentration of a compound of the disclosure, or gilteritinib, needed to decrease the 62.5 nM Ven response to <10% in MOLM14(D835Y) cells [5]: 25 nM
IC50 [2]: < 0.5 nM

CC(O)(c1ccc2ncc(-c3cncc(N[C@@H]4CCCNC4)n3)n2c1)C(F)(F)F (single isomer, unassigned) [Compound 28a]
IC50 [1]: 33 nM
IC50 [3, 6]: 96 nM
IC50 [3, 7]: 149 nM
IC50 [2]: 2 nM

CC(O)(c1ccc2ncc(-c3cncc(N[C@H]4CNCC[C@@H]4F)n3)n2c1)C(F)(F)F (single isomer, unassigned) [Compound 31a]
IC50 [1]: 17 nM
IC50 [3, 6]: 138 nM
IC50 [3, 7]: 100 nM
IC50 [2]: 1 nM

COc1cc2ncc(-c3nc(N[C@H]4CNCC[C@@H]4F)ncc3F)n2nc1C1CC1 [Compound 1a, 4-(6-cyclopropyl-7-methoxyimidazo[1,2-b]pyridazin-3-yl)-5-fluoro-N-((3S,4S)-4-fluoropiperidin-3-yl)pyrimidin-2-amine]
IC50 [1]: 1 nM
IC50 [3, 6]: 17 nM
IC50 [3, 7]: 22 nM
Excess HSA (sum excess HSA score, combination with venetoclax) [4]: −696.6
Concentration needed to decrease the 312.5 nM Venetoclax response to <20% [4]: 2500 nM
Excess HSA (sum excess HSA score, combination with venetoclax) [5]: −1505
Concentration of a compound of the disclosure, or gilteritinib, needed to decrease the 62.5 nM Ven response to <10% in MOLM14(D835Y) cells [5]: 1.6 nM
IC50 [2]: 0.5 nM

FC(F)COc1cc2ncc(-c3ccnc(N[C@H]4CNCC[C@@H]4F)n3)n2nc1C1CC1 [Compound 4a, 4-(6-cyclopropyl-7-(2,2-difluoroethoxy)imidazo[1,2-b]pyridazin-3-yl)-N-((3 S,4S)-4-fluoropiperidin-3-yl)pyrimidin-2-amine]
IC50 [1]: 31 nM
IC50 [3, 6]: 184 nM
IC50 [3, 7]: 166 nM
Excess HSA (sum excess HSA score, combination with venetoclax) [4]: −2433
Concentration needed to decrease the 312.5 nM Venetoclax response to <20% [4]: 2500 nM
Excess HSA (sum excess HSA score, combination with venetoclax) [5]: −1769
Concentration of a compound of the disclosure, or gilteritinib, needed to decrease the 62.5 nM Ven response to <10% in MOLM14(D835Y) cells [5]: 6.3 nM
IC50 [2]: < 0.5 nM

F[C@H]1CCNC[C@@H]1Nc1nccc(-c2cnc3cc(OC4CC4)c(C4CC4)nn23)n1 [Compound 12a, 4-(7-cyclopropoxy-6-cyclopropylimidazo[1,2-b]pyridazin-3-yl)-N-((3S,4S)-4-fluoropiperidin-3-yl)pyrimidin-2-amine]
IC50 [1]: 18 nM
IC50 [3, 6]: 382 nM
IC50 [3, 7]: 220 nM
Excess HSA (sum excess HSA score, combination with venetoclax) [4]: −1770.6140
Concentration needed to decrease the 312.5 nM Venetoclax response to <20% [4]: 5000 nM
Excess HSA (sum excess HSA score, combination with venetoclax) [5]: −1236
Concentration of a compound of the disclosure, or gilteritinib, needed to decrease the 62.5 nM Ven response to <10% in MOLM14(D835Y) cells [5]: 100 nM
IC50 [2]: < 0.5 nM

COc1cc2ncc(-c3nc(N[C@H]4CNCC[C@@H]4F)ncc3F)n2nc1C(C)(C)O [Compound 45a, 2-(3-(5-fluoro-2-(((3S,4S)-4-fluoropiperidin-3-yl)amino)pyrimidin-4-yl)-7-methoxyimidazo[1,2-b]pyridazin-6-yl)propan-2-ol]
IC50 [1]: 18 nM
IC50 [3, 6]: 204 nM
IC50 [3, 7]: 351 nM
Excess HSA (sum excess HSA score, combination with venetoclax) [4]: −1158
Concentration needed to decrease the 312.5 nM Venetoclax response to <20% [4]: 10000 nM
Excess HSA (sum excess HSA score, combination with venetoclax) [5]: −2340
Concentration of a compound of the disclosure, or gilteritinib, needed to decrease the 62.5 nM Ven response to <10% in MOLM14(D835Y) cells [5]: 25 nM
IC50 [2]: < 0.5 nM

CC(C)(O)c1ccc2ncc(-c3nc(N[C@H]4CNCC[C@@H]4F)ncc3F)n2c1 [Compound 46a, 2-(3-(5-fluoro-2-(((3S,4S)-4-fluoropiperidin-3-yl)amino)pyrimidin-4-yl)imidazo[1,2-a]pyridin-6-yl)propan-2-ol]
IC50 [1]: 6 nM
IC50 [3, 6]: 103 nM
IC50 [3, 7]: 112 nM
Excess HSA (sum excess HSA score, combination with venetoclax) [4]: −774
Concentration needed to decrease the 312.5 nM Venetoclax response to <20% [4]: 2500 nM
Excess HSA (sum excess HSA score, combination with venetoclax) [5]: −1279
Concentration of a compound of the disclosure, or gilteritinib, needed to decrease the 62.5 nM Ven response to <10% in MOLM14(D835Y) cells [5]: 50 nM
IC50 [2]: < 0.7 nM

CC(C)(O)c1ccc2ncc(-c3nc(N[C@@H]4CCCNC4)ncc3F)n2c1 [Compound 48a, (R)-2-(3-(5-fluoro-2-(piperidin-3-ylamino)pyrimidin-4-yl)imidazo[1,2-a]pyridin-6-yl)propan-2-ol]
IC50 [1]: 10 nM
IC50 [3, 6]: 56 nM
IC50 [3, 7]: 96 nM
Excess HSA (sum excess HSA score, combination with venetoclax) [4]: −759.8
Concentration needed to decrease the 312.5 nM Venetoclax response to <20% [4]: 2500 nM
Excess HSA (sum excess HSA score, combination with venetoclax) [5]: −1694
Concentration of a compound of the disclosure, or gilteritinib, needed to decrease the 62.5 nM Ven response to <10% in MOLM14(D835Y) cells [5]: 156.3 nM
IC50 [2]: 1 nM

COc1cc2ncc(-c3nc(N[C@H]4CNCC[C@@H]4F)ncc3F)n2nc1C1CC(F)(F)C1 [Compound 49a, 4-(6-(3,3-difluorocyclobutyl)-7-methoxyimidazo[1,2-b]pyridazin-3-yl)-5-fluoro-N-((3S,4S)-4-fluoropiperidin-3-yl)pyrimidin-2-amine]
IC50 [1]: 2 nM
IC50 [3, 6]: 79 nM
IC50 [3, 7]: 89 nM
Excess HSA (sum excess HSA score, combination with venetoclax) [4]: −1767
Concentration needed to decrease the 312.5 nM Venetoclax response to <20% [4]: 10000 nM
Excess HSA (sum excess HSA score, combination with venetoclax) [5]: −1960
Concentration of a compound of the disclosure, or gilteritinib, needed to decrease the 62.5 nM Ven response to <10% in MOLM14(D835Y) cells [5]: 6.3 nM
IC50 [2]: < 0.5 nM

COc1cc2ncc(-c3nc(N[C@@H]4CCCNC4)ncc3F)n2nc1C1CC2(CCC2)C1 [Compound 59a, (R)-5-fluoro-4-(7-methoxy-6-(spiro[3.3]heptan-2-yl)imidazo[1,2-b]pyridazin-3-yl)-N-(piperidin-3-yl)pyrimidin-2-amine]
IC50 [1]: 0.7 nM
IC50 [3, 6]: 250 nM
IC50 [3, 7]: 323 nM
Excess HSA (sum excess HSA score, combination with venetoclax) [4]: −914.4
Concentration needed to decrease the 312.5 nM Venetoclax response to <20% [4]: 5000 nM
Excess HSA (sum excess HSA score, combination with venetoclax) [5]: −1911
Concentration of a compound of the disclosure, or gilteritinib, needed to decrease the 62.5 nM Ven response to <10% in MOLM14(D835Y) cells [5]: 12.5 nM
IC50 [2]: < 0.5 nM

COc1cc2ncc(-c3nc(N[C@H]4CNC[C@@H]4F)ncc3F)n2nc1N1CCCS1(=O)=O [Compound 111a, 2-(3-(5-fluoro-2-(((3S,4S)-4-fluoropyrrolidin-3-yl)amino)pyrimidin-4-yl)-7-methoxyimidazo[1,2-b]pyridazin-6-yl)isothiazolidine 1,1-dioxide]
IC50 [1]: 40 nM
IC50 [2]: < 0.5 nM

COc1cc2ncc(-c3nc(N[C@H]4CNCC[C@@H]4F)ncc3F)n2nc1N1CCCS1(=O)=O [Compound 112a, 2-(3-(5-fluoro-2-(((3S,4S)-4-fluoropiperidin-3-yl)amino)pyrimidin-4-yl)-7-methoxyimidazo[1,2-b]pyridazin-6-yl)isothiazolidine 1,1-dioxide]
IC50 [1]: 19 nM
IC50 [3, 6]: 235 nM
IC50 [3, 7]: 355 nM
IC50 [2]: < 0.5 nM
